Measured values: patent US12297190B2, “Modulators of STING (stimulator of interferon genes)” (PFIZER INC., priority 2019, dated 2025)
pKi: −log10 of the molar value.

molecular target: R232-STING (Homo sapiens, UniProt Q86WV6, H232R); test: biochemical
Sequence (Q86WV6 155-341 H232R): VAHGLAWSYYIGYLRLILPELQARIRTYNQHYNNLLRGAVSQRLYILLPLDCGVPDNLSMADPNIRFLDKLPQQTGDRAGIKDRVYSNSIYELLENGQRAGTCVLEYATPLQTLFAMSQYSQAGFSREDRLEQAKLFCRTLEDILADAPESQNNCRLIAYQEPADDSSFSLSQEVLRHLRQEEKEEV

**Q.** How did the pKi turn out when CCn1nc(C)cc1-c1n[nH]c(-c2cc(C(N)=O)cc3c2cnn3CCN2CCO[C@@H](C)C2)n1 (racemic) [YY08, 4-[5-(1-ethyl-3-methyl-1H-pyrazol-5-yl)-4H-1,2,4-triazol-3-yl]-1-{2-[(2S)-2-methylmorpholin-4-yl]ethyl}-1H-indazole-6-carboxamide] was run?
**A.** 6.43

**Q.** How did the pKi turn out when CCN1CCCC[C@@H]1Cn1ncc2c(-c3nnc(-c4cc(C)nn4CC)[nH]3)cc(C(N)=O)cc21 (racemic) [ZZZ014, 4-[5-(1-ethyl-3-methyl-1H-pyrazol-5-yl)-4H-1,2,4-triazol-3-yl]-1-{[(2R)-1-ethylpiperidin-2-yl]methyl}-1H-indazole-6-carboxamide] was run?
**A.** < 6.00

**Q.** With CCn1nc(C)cc1-c1nnc(-c2cc(C(N)=O)cc3c2cnn3[C@H](C)CCN2CCOCC2)[nH]1 (racemic) [ZZZ022, 4-[5-(1-ethyl-3-methyl-1H-pyrazol-5-yl)-4H-1,2,4-triazol-3-yl]-1-[(2R)-4-(morpholin-4-yl)butan-2-yl]-1H-indazole-6-carboxamide] as the molecule, how does the pKi read?
**A.** 6.35

**Q.** How did the pKi turn out when CCn1nc(C)cc1-c1nnc(-c2cc(C(N)=O)cc3c2cnn3CC[C@H]2CCCCN2C)[nH]1 (racemic) [ZZZ023, 4-[5-(1-ethyl-3-methyl-1H-pyrazol-5-yl)-4H-1,2,4-triazol-3-yl]-1-{2-[(2R)-1-methylpiperidin-2-yl]ethyl}-1H-indazole-6-carboxamide] was run?
**A.** < 6.00

**Q.** With CCCN1CCC[C@@H]1Cn1ncc2c(-c3nnc(-c4cc(C)nn4CC)[nH]3)cc(C(N)=O)cc21 (racemic) [ZZZ025, 4-[5-(1-ethyl-3-methyl-1H-pyrazol-5-yl)-4H-1,2,4-triazol-3-yl]-1-{[(2R)-1-propylpyrrolidin-2-yl]methyl}-1H-indazole-6-carboxamide] as the molecule, how does the pKi read?
**A.** 6.15

**Q.** CCn1nc(C)cc1-c1nnc(-c2cc(C(N)=O)cc3c2cnn3CCCN2CCO[C@@H](C)C2)[nH]1 (racemic) [ZZZ029, 4-[5-(1-ethyl-3-methyl-1H-pyrazol-5-yl)-4H-1,2,4-triazol-3-yl]-1-{3-[(2S)-2-methylmorpholin-4-yl]propyl}-1H-indazole-6-carboxamide] was tested. Which pKi did it give?
**A.** 6.25

**Q.** CCn1nc(C)cc1-c1nnc(-c2cc(C(N)=O)cc3c2cnn3[C@H](C)CCCN(C)C)[nH]1 (racemic) [ZZZ031, 1-[(2R)-5-(dimethylamino)pentan-2-yl]-4-[5-(1-ethyl-3-methyl-1H-pyrazol-5-yl)-4H-1,2,4-triazol-3-yl]-1H-indazole-6-carboxamide] was tested. Which pKi did it give?
**A.** < 6.00

**Q.** With CCn1nc(C)cc1-c1nnc(-c2cc(C(N)=O)cc3c2cnn3C[C@H]2CCN(C3CC3)C2)[nH]1 (racemic) [ZZZ038, 1-{[(3S)-1-cyclopropylpyrrolidin-3-yl]methyl}-4-[5-(1-ethyl-3-methyl-1H-pyrazol-5-yl)-4H-1,2,4-triazol-3-yl]-1H-indazole-6-carboxamide] as the molecule, how does the pKi read?
**A.** 6.03

**Q.** With CCn1nc(C)cc1-c1nnc(-c2cc(C(N)=O)cc3c2cnn3[C@H](C)C2CCN(C)CC2)[nH]1 (racemic) [ZZZ041, 4-[5-(1-ethyl-3-methyl-1H-pyrazol-5-yl)-4H-1,2,4-triazol-3-yl]-1-[(1R)-1-(1-methylpiperidin-4-yl)ethyl]-1H-indazole-6-carboxamide] as the molecule, how does the pKi read?
**A.** < 6.00

**Q.** How did the pKi turn out when CCn1nc(C)cc1-c1nnc(-c2cc(C(N)=O)cc3c2cnn3CC[C@@H]2CCCN(C)C2)[nH]1 (racemic) [ZZZ042, 4-[5-(1-ethyl-3-methyl-1H-pyrazol-5-yl)-4H-1,2,4-triazol-3-yl]-1-{2-[(3S)-1-methylpiperidin-3-yl]ethyl}-1H-indazole-6-carboxamide] was run?
**A.** < 6.00

**Q.** How did the pKi turn out when CCn1nc(C)cc1-c1nnc(-c2cc(C(N)=O)cc3c2cnn3C[C@@H]2CCC3(CNC3)O2)[nH]1 (racemic) [ZZZ063, 4-[5-(1-ethyl-3-methyl-1H-pyrazol-5-yl)-4H-1,2,4-triazol-3-yl]-1-{[(6S)-5-oxa-2-azaspiro[3.4]octan-6-yl]methyl}-1H-indazole-6-carboxamide] was run?
**A.** < 6.00

**Q.** How did the pKi turn out when CCn1nc(C)cc1-c1nnc(-c2cc(C(N)=O)cc3c2cnn3[C@H]2CCCNC2)[nH]1 (racemic) [ZZZ069, 4-[5-(1-ethyl-3-methyl-1H-pyrazol-5-yl)-4H-1,2,4-triazol-3-yl]-1-[(3S)-piperidin-3-yl]-1H-indazole-6-carboxamide] was run?
**A.** < 6.00

**Q.** How did the pKi turn out when CCn1nc(C)cc1-c1nnc(-c2cc(C(N)=O)cc3c2cnn3C[C@H]2CC23CCNCC3)[nH]1 (racemic) [ZZZ072, 1-{[(1S)-6-azaspiro[2.5]octan-1-yl]methyl}-4-[5-(1-ethyl-3-methyl-1H-pyrazolo-5-yl)-4H-1,2,4-triazol-3-yl]-1H-indazole-6-carboxamide] was run?
**A.** 6.08

**Q.** How did the pKi turn out when CCn1nc(C)cc1-c1n[nH]c(-c2cc(C(N)=O)cc3c2cnn3CCN2C[C@H](C)OC[C@H]2C)n1 (racemic) [ZZZ089, 1-{2-[(2S,5R)-2,5-dimethylmorpholin-4-yl]ethyl}-4-[3-(1-ethyl-3-methyl-1H-pyrazol-5-yl)-1H-1,2,4-triazol-5-yl]-1H-indazole-6-carboxamide] was run?
**A.** 6.04

**Q.** CCn1nc(C)cc1-c1n[nH]c(-c2cc(C(N)=O)cc3c2cnn3CCN2CCO[C@@H](CO)C2)n1 (racemic) [ZZZ092, 4-[3-(1-ethyl-3-methyl-1H-pyrazol-5-yl)-1H-1,2,4-triazol-5-yl]-1-{2-[(2R)-2-(hydroxymethyl)morpholin-4-yl]ethyl}-1H-indazole-6-carboxamide] was tested. Which pKi did it give?
**A.** 6.01

**Q.** CCn1nc(C)cc1-c1n[nH]c(-c2cc(C(N)=O)cc3c2cnn3CCN2CCOC[C@@H]2C2CC2)n1 (racemic) [ZZZ099, 1-{2-[(3S)-3-cyclopropylmorpholin-4-yl]ethyl}-4-[3-(1-ethyl-3-methyl-1H-pyrazol-5-yl)-1H-1,2,4-triazol-5-yl]-1H-indazole-6-carboxamide] was tested. Which pKi did it give?
**A.** 6.14

**Q.** CCn1nc(C)cc1-c1n[nH]c(-c2cc(C(N)=O)cc3c2cnn3CCN2CCO[C@@H](COC)C2)n1 (racemic) [ZZZ114, 4-[3-(1-ethyl-3-methyl-1H-pyrazol-5-yl)-1H-1,2,4-triazol-5-yl]-1-{2-[(2R)-2-(methoxymethyl)morpholin-4-yl]ethyl}-1H-indazole-6-carboxamide] was tested. Which pKi did it give?
**A.** 6.03

**Q.** CCn1nc(C)cc1-c1n[nH]c(-c2cc(C(N)=O)cc3c2cnn3CCN2CCO[C@@H](C3CC3)C2)n1 (racemic) [ZZZ117, 1-{2-[(2S)-2-cyclopropylmorpholin-4-yl]ethyl}-4-[3-(1-ethyl-3-methyl-1H-pyrazol-5-yl)-1H-1,2,4-triazol-5-yl]-1H-indazole-6-carboxamide] was tested. Which pKi did it give?
**A.** 6.07

**Q.** CCn1nc(C)cc1-c1n[nH]c(-c2cc(C(N)=O)cc3c2cnn3CCN2CC[C@H](O)C2)n1 (racemic) [ZZZ119, 4-[3-(1-ethyl-3-methyl-1H-pyrazol-5-yl)-1H-1,2,4-triazol-5-yl]-1-{2-[(3S)-3-hydroxypyrrolidin-1-yl]ethyl}-1H-indazole-6-carboxamide] was tested. Which pKi did it give?
**A.** < 6.00

**Q.** CCn1nc(C)cc1-c1nnc(-c2cc(C(N)=O)cc3[nH]ncc23)[nH]1 [ZZZ001, 4-[5-(1-ethyl-3-methyl-1H-pyrazol-5-yl)-4H-1,2,4-triazol-3-yl]-1H-indazole-6-carboxamide] was tested. Which pKi did it give?
**A.** < 6.00

**Q.** CCn1nc(C)cc1-c1nnc(-c2cc(C(N)=O)cc3c2nnn3C)[nH]1 [ZZZ002, 4-[5-(1-ethyl-3-methyl-1H-pyrazol-5-yl)-4H-1,2,4-triazol-3-yl]-1-methyl-1H-benzotriazole-6-carboxamide] was tested. Which pKi did it give?
**A.** < 6.00

**Q.** How did the pKi turn out when CCn1nc(C)cc1-c1nnc(-c2cc(C(N)=O)cc3nn(C)nc23)[nH]1 [ZZZ003, 7-[5-(1-ethyl-3-methyl-1H-pyrazol-5-yl)-4H-1,2,4-triazol-3-yl]-2-methyl-2H-benzotriazole-5-carboxamide] was run?
**A.** < 6.00

**Q.** How did the pKi turn out when CCn1nc(C(=O)O)cc1-c1n[nH]c(-c2nc(C(N)=O)cc3c2cnn3C)n1 [ZZZ004, 5-[5-(6-carbamoyl-1-methyl-1H-pyrazolo[4,3-c]pyridin-4-yl)-1H-1,2,4-triazol-3-yl]-1-ethyl-1H-pyrazole-3-carboxylic acid] was run?
**A.** < 7.05

**Q.** CCc1cc(-c2n[nH]c(-c3cc(C(N)=O)cc4c3cnn4C)n2)n(CC)n1 [ZZZ005, 4-[3-(1,3-diethyl-1H-pyrazol-5-yl)-1H-1,2,4-triazol-5-yl]-1-methyl-1H-indazole-6-carboxamide] was tested. Which pKi did it give?
**A.** < 6.00

**Q.** With CCn1nc(C)cc1-c1nnc(-c2cc(C(N)=O)cc3nn(CCN(C)C)cc23)[nH]1 [ZZZ006, 2-[2-(dimethylamino)ethyl]-4-[5-(1-ethyl-3-methyl-1H-pyrazol-5-yl)-4H-1,2,4-triazol-3-yl]-2H-indazole-6-carboxamide] as the molecule, how does the pKi read?
**A.** < 6.00

**Q.** How did the pKi turn out when CCn1nc(C)cc1-c1nnc(-c2cc(C(N)=O)cc3c2cnn3CCCN(C)C)[nH]1 [ZZZ007, 1-[3-(dimethylamino)propyl]-4-[5-(1-ethyl-3-methyl-1H-pyrazol-5-yl)-4H-1,2,4-triazol-3-yl]-1H-indazole-6-carboxamide] was run?
**A.** 6.07

**Q.** CCn1nc(C)cc1-c1ncc(-c2cc(C(N)=O)cc3c2cnn3C)[nH]1 [ZZZ009, 4-[2-(1-ethyl-3-methyl-1H-pyrazol-5-yl)-1H-imidazol-5-yl]-1-methyl-1H-indazole-6-carboxamide] was tested. Which pKi did it give?
**A.** 6.02

**Q.** CCn1nc(C)cc1-c1n[nH]c(-c2nc(C(N)=O)cc3cn[nH]c23)n1 [ZZZ010, 7-[3-(1-ethyl-3-methyl-1H-pyrazol-5-yl)-1H-1,2,4-triazol-5-yl]-1H-pyrazolo[3,4-c]pyridine-5-carboxamide] was tested. Which pKi did it give?
**A.** < 6.00

**Q.** With CCn1nc(C)cc1-c1nnc(-c2c(C(F)F)c(C(N)=O)cc3c2cnn3C)[nH]1 [ZZZ011, 5-(difluoromethyl)-4-[5-(1-ethyl-3-methyl-1H-pyrazol-5-yl)-4H-1,2,4-triazol-3-yl]-1-methyl-1H-indazole-6-carboxamide] as the molecule, how does the pKi read?
**A.** < 6.57

**Q.** How did the pKi turn out when CCn1nc(C)cc1-c1n[nH]c(-c2nc(C(N)=O)cc3[nH]ncc23)n1 [ZZZ012, 4-[3-(1-ethyl-3-methyl-1H-pyrazol-5-yl)-1H-1,2,4-triazol-5-yl]-1H-pyrazolo[4,3-c]pyridine-6-carboxamide] was run?
**A.** 6.72

**Q.** CCn1nc(C)cc1-c1nnc(-c2cc(C(N)=O)cc3c2cnn3CC(C)(C)CN(C)C)[nH]1 [ZZZ013, 1-[3-(dimethylamino)-2,2-dimethylpropyl]-4-[5-(1-ethyl-3-methyl-1H-pyrazol-5-yl)-4H-1,2,4-triazol-3-yl]-1H-indazole-6-carboxamide] was tested. Which pKi did it give?
**A.** < 6.00

**Q.** How did the pKi turn out when CCn1nc(C)cc1-c1nnc(-c2cc(C(N)=O)cc3c2cnn3C[C@@H](C)N(C)C)[nH]1 [ZZZ015, 1-[(2R)-2-(dimethylamino)propyl]-4-[5-(1-ethyl-3-methyl-1H-pyrazol-5-yl)-4H-1,2,4-triazol-3-yl]-1H-indazole-6-carboxamide] was run?
**A.** < 6.00
